This passage reports IC50 results from US10301280B2 (Plexxikon Inc., priority 2012, dated 2019).

Chain of c-kit mutant D816V (P10721 other isoform, or with tags, fused parts or gaps D816V/del 694-753): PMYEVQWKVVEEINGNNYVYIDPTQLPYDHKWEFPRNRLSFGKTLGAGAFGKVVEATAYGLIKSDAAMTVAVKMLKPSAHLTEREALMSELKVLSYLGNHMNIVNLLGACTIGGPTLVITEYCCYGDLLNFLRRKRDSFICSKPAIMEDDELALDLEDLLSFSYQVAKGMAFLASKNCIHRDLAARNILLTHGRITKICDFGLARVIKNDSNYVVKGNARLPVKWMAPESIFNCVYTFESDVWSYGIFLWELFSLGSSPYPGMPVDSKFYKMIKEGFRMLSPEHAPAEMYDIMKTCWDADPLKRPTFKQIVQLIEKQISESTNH

The target of the experiment is c-kit mutant D816V (Homo sapiens (Human), UniProt P10721, D816V/DEL694-753). The experiment in a line: c-Kit mutant D816V biochemical assay (AlphaScreen). Conditions: c-kit D816V biochemical inhibitory activity. A digest of the protocol:
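His-tagged c-Kit D816V kinase domain (551-934, Δ694-753, E. coli) phosphorylating 30 nM biotin-(E4Y)10 at 10 μM ATP in HEPES pH 7.2 with Mg/Mn, 5% DMSO, 30 min at room temperature. PY20-acceptor/streptavidin-donor AlphaScreen detection after EDTA stop. IC50 from 8-point 1:3 titration.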
Turning to `O=C(Nc1cnc2[nH]c(-c3ccccc3)cc2c1)c1ncccc1F` [P-2012, 3-fluoro-N-(2-phenyl-1H-pyrrolo[2,3-b]pyridin-5-yl)pyridine-2-carboxamide], the IC50 – broadly, the concentration that gives 50% inhibition – lay within 1 to 10 µM.

`Cc1noc(C)c1C(=O)Nc1cnc2[nH]c(-c3ccccc3)cc2c1` [P-2013, 3,5-dimethyl-N-(2-phenyl-1H-pyrrolo[2,3-b]pyridin-5-yl)isoxazole-4-carboxamide] came in with an IC50 of 10 to 200 µM. Under `O=C(Nc1cnc2[nH]c(-c3ccccc3)cc2c1)c1cn[nH]n1` [P-2015, N-(2-phenyl-1H-pyrrolo[2,3-b]pyridin-5-yl)-2H-triazole-4-carboxamide] stands 1 to 10 µM. Under `Cc1cccnc1C(=O)Nc1cnc2[nH]c(-c3ccccc3)cc2c1` [P-2016, 3-methyl-N-(2-phenyl-1H-pyrrolo[2,3-b]pyridin-5-yl)pyridine-2-carboxamide] stands 1 to 10 µM; under `Cc1cc(C(=O)Nc2cnc3[nH]c(-c4ccc(F)cc4)cc3c2)[nH]n1` [P-2019, N-[2-(4-fluorophenyl)-1H-pyrrolo[2,3-b]pyridin-5-yl]-3-methyl-1H-pyrazole-5-carboxamide], 0.0001 to 1 µM. `Cc1n[nH]c(C(=O)Nc2cnc3[nH]c(-c4ccc(F)cc4)cc3c2)c1Cl` [P-2023, 4-chloro-N-[2-(4-fluorophenyl)-1H-pyrrolo[2,3-b]pyridin-5-yl]-3-methyl-1H-pyrazole-5-carboxamide] showed an IC50 of 0.0001 to 1 µM. In the case of `Cc1n[nH]c(C(=O)Nc2cnc3[nH]c(-c4ccc(F)cc4)cc3c2)c1C` [P-2024, N-[2-(4-fluorophenyl)-1H-pyrrolo[2,3-b]pyridin-5-yl]-3,4-dimethyl-1H-pyrazole-5-carboxamide] it was 0.0001 to 1 µM; in that of `CC(=O)Nc1cccc(C(=O)Nc2cnc3[nH]c(-c4ccc(F)cc4)cc3c2)c1` [P-2026, 3-acetamido-N-[2-(4-fluorophenyl)-1H-pyrrolo[2,3-b]pyridin-5-yl]benzamide], 10 to 200 µM. Under `O=C(Nc1cnc2[nH]c(-c3ccc(F)cc3)cc2c1)c1cccc2n[nH]cc12` [P-2027, N-[2-(4-fluorophenyl)-1H-pyrrolo[2,3-b]pyridin-5-yl]-2H-indazole-4-carboxamide] stands 1 to 10 µM; under `Cc1c[nH]nc1C(=O)Nc1cnc2[nH]c(-c3ccc(F)cc3)cc2c1` [P-2029, N-[2-(4-fluorophenyl)-1H-pyrrolo[2,3-b]pyridin-5-yl]-4-methyl-1H-pyrazole-3-carboxamide], 0.0001 to 1 µM; under `CCn1nccc1S(=O)(=O)Nc1cnc2[nH]c(-c3ccc(F)cc3)cc2c1` [P-2030, 2-ethyl-N-[2-(4-fluorophenyl)-1H-pyrrolo[2,3-b]pyridin-5-yl]pyrazole-3-sulfonamide], 10 to 200 µM.

`Cc1cc(C(=O)Nc2cnc3[nH]c(C4=CCN(C(=O)N5CCOCC5)CC4)cc3c2)n[nH]1` [P-2031, 5-methyl-N-[2-[1-(morpholine-4-carbonyl)-3,6-dihydro-2H-pyridin-4-yl]-1H-pyrrolo[2,3-b]pyridin-5-yl]-1H-pyrazole-3-carboxamide] showed an IC50 of 0.0001 to 1 µM. In the case of `Cc1n[nH]c(C(=O)Nc2cnc3[nH]ccc3c2)c1C` [P-2032, 3,4-dimethyl-N-(1H-pyrrolo[2,3-b]pyridin-5-yl)-1H-pyrazole-5-carboxamide] it was 1 to 10 µM. Regarding `Cc1n[nH]c(C(=O)Nc2cnc3c(c2)cc(C2=CCN(C(=O)N4CCOCC4)CC2)n3S(=O)(=O)c2ccccc2)c1C` [P-2033, N-[1-(benzenesulfonyl)-2-[1-(morpholine-4-carbonyl)-3,6-dihydro-2H-pyridin-4-yl]pyrrolo[2,3-b]pyridin-5-yl]-3,4-dimethyl-1H-pyrazole-5-carboxamide], the IC50 fell in the range of 0.0001 to 1 µM.

`Cc1n[nH]c(C(=O)Nc2cnc3[nH]c(C4=CCN(C(=O)N5CCOCC5)CC4)cc3c2)c1C` [P-2034, 3,4-dimethyl-N-[2-[1-(morpholine-4-carbonyl)-3,6-dihydro-2H-pyridin-4-yl]-1H-pyrrolo[2,3-b]pyridin-5-yl]-1H-pyrazole-5-carboxamide] displayed an IC50 of 0.0001 to 1 µM. For `Cc1n[nH]c(C(=O)Nc2cnc3[nH]c(C4=CCN(C(=O)N5CCOCC5)CC4)cc3c2)c1Cl` [P-2036, 4-chloro-3-methyl-N-[2-[1-(morpholine-4-carbonyl)-3,6-dihydro-2H-pyridin-4-yl]-1H-pyrrolo[2,3-b]pyridin-5-yl]-1H-pyrazole-5-carboxamide], the IC50 is 0.0001 to 1 µM. Molecule `Cc1n[nH]nc1C(=O)Nc1cnc2[nH]c(-c3ccc(F)cc3)cc2c1` [P-2037, N-[2-(4-fluorophenyl)-1H-pyrrolo[2,3-b]pyridin-5-yl]-5-methyl-2H-triazole-4-carboxamide] showed an IC50 of 0.0001 to 1 µM. Under `Cc1nn(C)cc1-c1cc2cc(NC(=O)c3[nH]nc(C)c3C)cnc2[nH]1` [P-2038, N-[2-(1,3-dimethylpyrazol-4-yl)-1H-pyrrolo[2,3-b]pyridin-5-yl]-4,5-dimethyl-1H-pyrazole-3-carboxamide] stands 0.0001 to 1 µM; under `Cc1[nH]nc(C(=O)Nc2cnc3[nH]c(C4=CCN(C(=O)C5CC5)CC4)cc3c2)c1Cl` [P-2039, 4-chloro-N-[2-[1-(cyclopropanecarbonyl)-3,6-dihydro-2H-pyridin-4-yl]-1H-pyrrolo[2,3-b]pyridin-5-yl]-5-methyl-1H-pyrazole-3-carboxamide], 0.0001 to 1 µM. For `Cc1n[nH]c(C(=O)Nc2cnc3[nH]nc(C)c3c2)c1C` [P-2040, 3,4-dimethyl-N-(3-methyl-1H-pyrazolo[3,4-b]pyridin-5-yl)-1H-pyrazole-5-carboxamide], the IC50 lay within 0.0001 to 1 µM. Under `Cc1cc(C(=O)Nc2cnc3[nH]c(C4=CCN(C(=O)C5CC5)CC4)cc3c2)n[nH]1` [P-2042, N-[2-[1-(cyclopropanecarbonyl)-3,6-dihydro-2H-pyridin-4-yl]-1H-pyrrolo[2,3-b]pyridin-5-yl]-5-methyl-1H-pyrazole-3-carboxamide] stands 0.0001 to 1 µM; under `Cc1[nH]nc(C(=O)Nc2cnc3[nH]c(C4=CCN(C(=O)C5CC5)CC4)cc3c2)c1C` [P-2043, N-[2-[1-(cyclopropanecarbonyl)-3,6-dihydro-2H-pyridin-4-yl]-1H-pyrrolo[2,3-b]pyridin-5-yl]-4,5-dimethyl-1H-pyrazole-3-carboxamide], 0.0001 to 1 µM; under `Cc1n[nH]c(C(=O)Nc2cnc(Nc3ccccc3)nc2)c1C` [P-2044, N-(2-anilinopyrimidin-5-yl)-3,4-dimethyl-1H-pyrazole-5-carboxamide], 0.0001 to 1 µM. Under `Cc1n[nH]c(C(=O)Nc2ccc(Nc3ccccc3)nc2)c1C` [P-2045, N-(6-anilino-3-pyridyl)-3,4-dimethyl-1H-pyrazole-5-carboxamide] stands 0.0001 to 1 µM.

Regarding `O=C(Nc1cnc2[nH]c(-c3ccc(F)cc3)cc2c1)c1n[nH]c2ccccc12` [P-2046, N-[2-(4-fluorophenyl)-1H-pyrrolo[2,3-b]pyridin-5-yl]-1H-indazole-3-carboxamide], the IC50 is 0.0001 to 1 µM. Under `O=C(Nc1cnc2[nH]c(-c3ccc(F)cc3)cc2c1)c1n[nH]c2c1CCCC2` [P-2047, N-[2-(4-fluorophenyl)-1H-pyrrolo[2,3-b]pyridin-5-yl]-4,5,6,7-tetrahydro-1H-indazole-3-carboxamide] stands 0.0001 to 1 µM. In the case of `Cc1n[nH]c(C(=O)Nc2cnc3[nH]c(-c4cnn(C5CCNCC5)c4)cc3c2)c1C` [P-2048, 3,4-dimethyl-N-[2-[1-(4-piperidyl)pyrazol-4-yl]-1H-pyrrolo[2,3-b]pyridin-5-yl]-1H-pyrazole-5-carboxamide] it was 0.0001 to 1 µM.

In the case of `Cc1n[nH]c(C(=O)Nc2cnc3[nH]c(Cl)cc3c2)c1C` [P-2049, N-(2-chloro-1H-pyrrolo[2,3-b]pyridin-5-yl)-3,4-dimethyl-1H-pyrazole-5-carboxamide], the IC50 lay in the range of 0.0001 to 1 µM.

On to `CCNS(=O)(=O)c1cccc(Nc2ncc(NC(=O)c3[nH]nc(C)c3C)cn2)c1` [P-2050, N-[2-[3-(ethylsulfamoyl)anilino]pyrimidin-5-yl]-3,4-dimethyl-1H-pyrazole-5-carboxamide], for which the IC50 lay in the range of 1 to 10 µM. Molecule `Cc1n[nH]c(C(=O)Nc2cnc(Nc3cccc(N4CCOCC4)c3)nc2)c1C` [P-2051, 3,4-dimethyl-N-[2-(3-morpholinoanilino)pyrimidin-5-yl]-1H-pyrazole-5-carboxamide] showed an IC50 of 0.0001 to 1 µM. Molecule `CCCS(=O)(=O)Nc1cccc(Nc2ncc(NC(=O)c3[nH]nc(C)c3C)cn2)c1` [P-2052, 3,4-dimethyl-N-[2-[3-(propylsulfonylamino)anilino]pyrimidin-5-yl]-1H-pyrazole-5-carboxamide] returned an IC50 of 0.0001 to 1 µM. In the case of `Cc1n[nH]c(C(=O)Nc2cnc(Nc3cccc(NS(=O)(=O)c4ccccc4)c3)nc2)c1C` [P-2053, N-[2-[3-(benzenesulfonamido)anilino]pyrimidin-5-yl]-3,4-dimethyl-1H-pyrazole-5-carboxamide] it was 0.0001 to 1 µM; in that of `CNC(=O)c1cccc(Nc2ncc(NC(=O)c3[nH]nc(C)c3C)cn2)c1` [P-2054, 3,4-dimethyl-N-[2-[3-(methylcarbamoyl)anilino]pyrimidin-5-yl]-1H-pyrazole-5-carboxamide], 0.0001 to 1 µM; in that of `CCOC(=O)Nc1cccc(Nc2ncc(NC(=O)c3[nH]nc(C)c3C)cn2)c1` [P-2055, ethyl N-[3-[[5-[(3,4-dimethyl-1H-pyrazole-5-carbonyl)amino]pyrimidin-2-yl]amino]phenyl]carbamate], 0.0001 to 1 µM. Under `Cc1n[nH]c(C(=O)Nc2cnc3[nH]c(C4=CCN(S(C)(=O)=O)CC4)cc3c2)c1Cl` [P-2057, 4-chloro-3-methyl-N-[2-(1-methylsulfonyl-3,6-dihydro-2H-pyridin-4-yl)-1H-pyrrolo[2,3-b]pyridin-5-yl]-1H-pyrazole-5-carboxamide] stands 0.0001 to 1 µM; under `Cc1cc(C(=O)Nc2cnc3[nH]c(N4CCOCC4)cc3c2)[nH]n1` [P-2058, 3-methyl-N-(2-morpholino-1H-pyrrolo[2,3-b]pyridin-5-yl)-1H-pyrazole-5-carboxamide], 0.0001 to 1 µM.
